Measured values: patent US9834558B2, “Substituted bridged urea analogs as sirtuin modulators” (GLAXOSMITHKLINE LLC, priority 2013, dated 2017)
Like-named read-outs stand apart in the source and are kept apart here.

Biological target: T1, SIRT1 (Homo sapiens, UniProt Q96EB6)
T1 sequence (Q96EB6 1-747): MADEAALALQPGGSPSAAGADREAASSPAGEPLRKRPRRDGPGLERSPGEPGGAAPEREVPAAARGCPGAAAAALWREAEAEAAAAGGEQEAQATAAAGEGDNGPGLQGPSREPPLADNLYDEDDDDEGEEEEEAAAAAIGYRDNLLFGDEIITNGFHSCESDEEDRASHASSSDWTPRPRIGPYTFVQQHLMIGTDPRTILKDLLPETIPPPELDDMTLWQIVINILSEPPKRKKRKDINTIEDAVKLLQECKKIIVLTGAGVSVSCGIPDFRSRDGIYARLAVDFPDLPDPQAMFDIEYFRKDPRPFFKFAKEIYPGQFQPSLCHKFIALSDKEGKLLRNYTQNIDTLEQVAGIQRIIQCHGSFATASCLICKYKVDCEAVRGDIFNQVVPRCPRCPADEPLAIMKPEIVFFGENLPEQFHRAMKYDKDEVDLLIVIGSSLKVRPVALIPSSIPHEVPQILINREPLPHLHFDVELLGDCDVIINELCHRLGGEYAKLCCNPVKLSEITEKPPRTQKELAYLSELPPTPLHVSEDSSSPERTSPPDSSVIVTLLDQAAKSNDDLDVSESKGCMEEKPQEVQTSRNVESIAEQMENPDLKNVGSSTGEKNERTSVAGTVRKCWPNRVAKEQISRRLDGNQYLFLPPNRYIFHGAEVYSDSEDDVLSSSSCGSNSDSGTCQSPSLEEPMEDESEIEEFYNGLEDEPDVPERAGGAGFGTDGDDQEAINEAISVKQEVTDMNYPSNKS
Assay: Trp mass spectrometry assay of SIRT1 activation
Type: biochemical
Conditions: for TRP Activity (EC1.5): EC1.5 = concentration that results in 150% activation of SIRT1; for Emax: read-out: TRP MAX RESP (percent maximum fold activation)
From the text: Mass spectrometry based assays were used to identify modulators of SIRT1 activity. […] The peptide was labeled with the fluorophore STMR (excitation 540 nm/emission 580 nm) at the C-terminus. The sequence of the peptide substrate was based on p53 with several modifications. In addition, the methionine residue naturally present in the sequence was replaced with the norleucine because the methionine may be susceptible to oxidation during synthesis and purification. The Trp based assay utilized a peptide having an amino acid residues as follows: Ac-R-H-K-K(Ac)-W-NH2 (SEQ ID NO: 2).
The Trp mass spectrometry assay was conducted as follows. 0.5 μM peptide substrate and 120 μM βNAD^+ were incubated with 10 nM SIRT1 for 25 minutes at 25° C. in a reaction buffer (50 mM HEPES pH 7.5, […], 1 mM DTT, 0.05% BSA). The SIRT1 protein was obtained by cloning the SirT1 gene into a T7-promoter containing vector, which was then expressed in BL21(DE3) bacterial cells and purified as described in further detail below. Test compound was added at varying concentrations to this reaction mixture and the resulting reactions were monitored. After the 25 minute incubation with SIRT1, 10 μL of 10% formic acid was added to stop the reaction. The resulting reactions were sealed and frozen for later mass spec analysis. The relative SIRT1 activity was then determined by measuring the amount of O-acetyl-ADP-ribose (OAADPR) formed (or, alternatively, the amount of deacetylated Trp peptide generated) by the NAD-dependent sirtuin deacetylation reaction in the presence of varying concentrations of the test compound versus control reactions lacking the test compound. The degree to which the test agent activated deacetylation by SIRT1 was expressed as EC1.5 (i.e., the concentration of compound required to increase SIRT1 activity by 50% over the control lacking test compound), and Percent Maximum Activation (i.e., the maximum activity relative to control (100%) obtained for the test compound).
This time point was the same as that used for test compounds and, within the linear range, the endpoint represents a change in velocity.
For the above assay, SIRT1 protein was expressed and purified as follows. The SirT1 gene was cloned into a T7-promoter containing vector and transformed into BL21(DE3). The protein was expressed by induction with 1 mM IPTG as an N-terminal His-tag fusion protein at 18° C. overnight and harvested at 30,000×g. Cells were lysed with lysozyme in lysis buffer (50 mM Tris-HCl, 2 mM Tris[2-carboxyethyl]phosphine (TCEP), 10 μM ZnCl2, 200 mM NaCl) and further treated with sonication for 10 min for complete lysis. The protein was purified over a Ni-NTA column (Amersham) and fractions containing pure protein were pooled, concentrated and run over a sizing column (Sephadex S200 26/60 global). The peak containing soluble protein was collected and run on an Ion-exchange column (MonoQ). Gradient elution (200 mM-500 mM NaCl) yielded pure protein. This protein was concentrated and dialyzed against dialysis buffer (20 mM Tris-HCl, 2 mM TCEP) overnight. The protein was aliquoted and frozen at −80° C. until further use.
“NT” means not tested; “ND” means not determinable.

[1] = Trp peptide assay, maximum activity relative to control (100%)

SMILES	TRP Activity (EC1.5) (Trp peptide assay)	Emax [1] [%]	Emax [%]
Cc1cc(-c2ccc3c(n2)N(C(=O)Nc2cnccn2)[C@H]2CCN3C2)c(C)cn1 [(9S)-5-(2,5-dimethylpyridin-4-yl)-N-(pyrazin-2-yl)-1,6,8-triazatricyclo[7.2.1.0 {2,7}]dodeca-2,4,6-triene-8-carboxamide]	B (B (EC1.5 1-25 μM))	> 150	–
Cc1ccc(-c2ccc3c(n2)N(C(=O)Nc2cnccn2)[C@H]2CCN3C2)c(C)n1 [(9S)-5-(2,6-dimethylpyridin-3-yl)-N-(pyrazin-2-yl)-1,6,8-triazatricyclo[7.2.1.0 {2,7}]dodeca-2(7),3,5-triene-8-carboxamide]	B (B (EC1.5 1-25 μM))	> 150	–
Cc1ccc(-c2ccc3c(n2)N(C(=O)Nc2cccnc2)[C@H]2CCN3C2)c(C)n1 [(9S)-5-(2,6-dimethylpyridin-3-yl)-N-(pyridin-3-yl)-1,6,8-triazatricyclo[7.2.1.0 {2,7}]dodeca-2(7),3,5-triene-8-carboxamide]	B (B (EC1.5 1-25 μM))	> 150	–
Cc1cc(-c2ccc3c(n2)N(C(=O)Nc2cnccn2)[C@H]2CCN3C2)cc(C)n1 [(9S)-5-(2,6-dimethylpyridin-4-yl)-N-(pyrazin-2-yl)-1,6,8-triazatricyclo[7.2.1.0^{2,7}]dodeca-2,4,6-triene-8-carboxamide]	A (A (EC1.5<1 μM))	> 150	–
O=C(Nc1cnccn1)N1c2nc(N3CCOC(C4CC4)C3)ccc2N2CC[C@H]1C2 (stereo partly drawn) [(9S)-5-(2-cyclopropylmorpholin-4-yl)-N-(pyrazin-2-yl)-1,6,8-triazatricyclo[7.2.1.0 {2,7}]dodeca-2,4,6-triene-8-carboxamide]	B (B (EC1.5 1-25 μM))	> 150	–
O=C(Nc1cnccn1)N1c2nc(-c3ccnc(C4CC4)c3)ccc2N2CC[C@H]1C2 [(9S)-5-(2-cyclopropylpyridin-4-yl)-N-(pyrazin-2-yl)-1,6,8-triazatricyclo[7.2.1.0 {2,7}]dodeca-2,4,6-triene-8-carboxamide]	A (A (EC1.5<1 μM))	> 150	–
CCOc1cc(-c2ccc3c(n2)N(C(=O)Nc2cnccn2)[C@H]2CCN3C2)ccn1 [(9S)-5-(2-ethoxypyridin-4-yl)-N-(pyrazin-2-yl)-1,6,8-triazatricyclo[7.2.1.0 {2,7}]dodeca-2(7),3,5-triene-8-carboxamide]	B (B (EC1.5 1-25 μM))	> 150	–
CCc1cc(-c2ccc3c(n2)N(C(=O)Nc2cnccn2)[C@H]2CCN3C2)ccn1 [(9S)-5-(2-ethylpyridin-4-yl)-N-(pyrazin-2-yl)-1,6,8-triazatricyclo[7.2.1.0 {2,7}]dodeca-2(7),3,5-triene-8-carboxamide]	A (A (EC1.5<1 μM))	> 150	–
COc1cc(-c2ccc3c(n2)N(C(=O)Nc2cnccn2)[C@H]2CCN3C2)cc(C)n1 [(9S)-5-(2-methoxy-6-methylpyridin-4-yl)-N-(pyrazin-2-yl)-1,6,8-triazatricyclo[7.2.1.0 {2,7}]dodeca-2(7),3,5-triene-8-carboxamide]	A (A (EC1.5<1 μM))	> 150	–
COc1cc(-c2ccc3c(n2)N(C(=O)Nc2cnccn2)[C@H]2CCN3C2)ccn1 [(9S)-5-(2-methoxypyridin-4-yl)-N-(pyrazin-2-yl)-1,6,8-triazatricyclo[7.2.1.0 {2,7}]dodeca-2(7),3,5-triene-8-carboxamide]	B (B (EC1.5 1-25 μM))	> 150	–
Cc1ncc(-c2ccc3c(n2)N(C(=O)Nc2cnccn2)[C@H]2CCN3C2)o1 [(9S)-5-(2-methyl-1,3-oxazol-5-yl)-N-(pyrazin-2-yl)-1,6,8-triazatricyclo[7.2.1.0 {2,7}]dodeca-2(7),3,5-triene-8-carboxamide]	B (B (EC1.5 1-25 μM))	> 150	–
Cc1ncc(-c2ccc3c(n2)N(C(=O)Nc2cnccn2)[C@H]2CCN3C2)s1 [(9S)-5-(2-methyl-1,3-thiazol-5-yl)-N-(pyrazin-2-yl)-1,6,8-triazatricyclo[7.2.1.0 {2,7}]dodeca-2(7),3,5-triene-8-carboxamide]	B (B (EC1.5 1-25 μM))	> 150	–
Cc1cc(-c2ccc3c(n2)N(C(=O)N2CCOCC2)[C@H]2CCN3C2)ccn1 [(9S)-5-(2-methylpyridin-4-yl)-8-[(morpholin-4-yl)carbonyl]-1,6,8-triazatricyclo[7.2.1.0 {2,7}]dodeca-2,4,6-triene]	C (C (EC1.5>25 μM))	< 150	–
Cc1cc(-c2ccc3c(n2)N(C(=O)N2CCCCC2)[C@H]2CCN3C2)ccn1 [(9S)-5-(2-methylpyridin-4-yl)-8-[(piperidin-1-yl)carbonyl]-1,6,8-triazatricyclo[7.2.1.0 {2,7}]dodeca-2,4,6-triene]	C (C (EC1.5>25 μM))	< 150	–
Cc1cc(-c2ccc3c(n2)N(C(=O)N2CCCC2)[C@H]2CCN3C2)ccn1 [(9S)-5-(2-methylpyridin-4-yl)-8-[(pyrrolidin-1-yl)carbonyl]-1,6,8-triazatricyclo[7.2.1.0 {2,7}]dodeca-2,4,6-triene]	C (C (EC1.5>25 μM))	< 150	–
Cc1cc(-c2ccc3c(n2)N(C(=O)N2CC[C@@H](C)C2)[C@H]2CCN3C2)ccn1 [(9S)-5-(2-methylpyridin-4-yl)-8-{[(3R)-3-methylpyrrolidin-1-yl]carbonyl}-1,6,8-triazatricyclo[7.2.1.0 {2,7}]dodeca-2,4,6-triene]	C (C (EC1.5>25 μM))	< 150	–
Cc1cc(-c2ccc3c(n2)N(C(=O)Nc2c[nH]nn2)[C@H]2CCN3C2)ccn1 [(9S)-5-(2-methylpyridin-4-yl)-N-(1H-1,2,3-triazol-4-yl)-1,6,8-triazatricyclo[7.2.1.0 {2,7}]dodeca-2(7),3,5-triene-8-carboxamide]	B (B (EC1.5 1-25 μM))	> 150	–
Cc1cc(-c2ccc3c(n2)N(C(=O)Nc2nccc(C)n2)[C@H]2CCN3C2)ccn1 [(9S)-5-(2-methylpyridin-4-yl)-N-(4-methylpyrimidin-2-yl)-1,6,8-triazatricyclo[7.2.1.0^{2,7}]dodeca-2,4,6-triene-8-carboxamide]	B (B (EC1.5 1-25 μM))	> 150	–
Cc1cc(-c2ccc3c(n2)N(C(=O)Nc2ncnc4[nH]cnc24)[C@H]2CCN3C2)ccn1 [(9S)-5-(2-methylpyridin-4-yl)-N-(9H-purin-6-yl)-1,6,8-triazatricyclo[7.2.1.0^{2,7}]dodeca-2,4,6-triene-8-carboxamide]	B (B (EC1.5 1-25 μM))	–	> 150
Cc1cc(-c2ccc3c(n2)N(C(=O)Nc2cnccn2)[C@H]2CCCN3C2)ccn1 [(9S)-5-(2-methylpyridin-4-yl)-N-(pyrazin-2-yl)-1,6,8-triazatricyclo[7.3.1.0 {2,7}]trideca-2(7),3,5-triene-8-carboxamide]	A (A (EC1.5<1 μM))	> 150	–
